From patent publication US5977063A, “Alkylated hexapeptides” (Eli Lilly and Company, priority 1998, dated 1999)

How the values were obtained:
Assay type in all cases: cell-based
[1] = tested on: Staphylococcus epidermidis 270; experiment: MIC, standard broth micro-dilution assay, SE 270; parameters: unit not given here
Protocol: (§1) The antibacterial efficacy of the present compounds is illustrated by Table II. The minimal inhibitory concentrations (MICs) were determined using a standard broth micro-dilution assay.

[2] = tested on: Staphylococcus aureus 489; experiment: MIC, standard broth micro-dilution assay, SA 489; parameters: unit not given here
Protocol: as §1

[3] = tested on: Streptococcus pyogenes C203; experiment: MIC, standard broth micro-dilution assay, SPY C203; parameters: unit not given here
Protocol: as §1

[4] = tested on: Staphylococcus aureus 447; experiment: MIC, standard broth micro-dilution assay, SA 447; parameters: unit not given here
Protocol: as §1

[5] = tested on: Enterococcus faecium and faecalis (RESISTANT); settings: geometric mean of 4-6 isolates
Protocol: as §1

[6] = tested on: Streptococcus pneumoniae P1; experiment: MIC, standard broth micro-dilution assay, SPN P1; parameters: unit not given here
Protocol: as §1

[7] = tested on: Staphylococcus haemolyticus 415; experiment: MIC, standard broth micro-dilution assay, SH 415; parameters: unit not given here
Protocol: as §1

[8] = tested on: Staphylococcus aureus 446; experiment: MIC, standard broth micro-dilution assay, SA 446; parameters: unit not given here
Protocol: as §1

[9] = tested on: Staphylococcus haemolyticus 105; experiment: MIC, standard broth micro-dilution assay, SH 105; parameters: unit not given here
Protocol: as §1

[10] = tested on: Enterococcus faecium and faecalis (SENSITIVE); experiment: MIC, standard broth micro-dilution assay, SENSITIVE enterococci; parameters: unit not given here; settings: geometric mean of 4-6 isolates
Protocol: as §1

| SMILES | Minimal Inhibitory Concentration (MIC) SE 270 [1] | Minimal Inhibitory Concentration (MIC) SA 489 [2] | Minimal Inhibitory Concentration (MIC) SPY C203 [3] | Minimal Inhibitory Concentration (MIC) SA 447 [4] | Minimal Inhibitory Concentration (MIC) RESISTANT [5] | Minimal Inhibitory Concentration (MIC) SPN P1 [6] | Minimal Inhibitory Concentration (MIC) SH 415 [7] | Minimal Inhibitory Concentration (MIC) SA 446 [8] | Minimal Inhibitory Concentration (MIC) SH 105 [9] | Minimal Inhibitory Concentration (MIC) SENSITIVE [10] |
| --- | --- | --- | --- | --- | --- | --- | --- | --- | --- | --- |
| CCCCCCN[C@H]1C(=O)N[C@@H](CC(N)=O)C(=O)N[C@H]2C(=O)N[C@H]3C(=O)N[C@H](C(=O)N[C@H](C(=O)O)c4cc(O)cc(O)c4-c4cc3ccc4O)[C@H](O[C@H]3C[C@](C)(N)[C@@H](O)[C@H](C)O3)c3ccc(c(Cl)c3)Oc3cc2cc(c3O[C@@H]2O[C@H](CO)[C@@H](O)[C@H](O)[C@H]2O[C@H]2C[C@](C)(NCCCCCC)[C@@H](O)[C@H](C)O2)Oc2ccc(cc2Cl)[C@H]1O [Example 7, N^1,N^DISACC -DIHEXYLDESLEUCYL-A82846B] | 16 | 8 | 8 | 8 | > 128 | 8 | 8 | 16 | 4 | 111 |
| C[C@@H]1O[C@@H](O[C@@H]2c3ccc(c(Cl)c3)Oc3cc4cc(c3O[C@@H]3O[C@H](CO)[C@@H](O)[C@H](O)[C@H]3O[C@H]3C[C@](C)(NCc5ccc(-c6ccc(Cl)cc6)cc5)[C@@H](O)[C@H](C)O3)Oc3ccc(cc3Cl)[C@@H](O)[C@@H](NCc3ccc(-c5cc(C(F)(F)F)cc(C(F)(F)F)c5)cc3)C(=O)N[C@@H](CC(N)=O)C(=O)N[C@H]4C(=O)N[C@H]3C(=O)N[C@@H]2C(=O)N[C@H](C(=O)O)c2cc(O)cc(O)c2-c2cc3ccc2O)C[C@](C)(N)[C@H]1O [Example 27, N^1 -(p-(3,5-BIS-(TRIFLUOROMETHYL)-PHENYL)BENZYL)-N^DISACC -(p-(p-CHLOROPHENYL)BENZYL-DESLEUCYL-A82846B] | 8 | 32 | 64 | 32 | 9.5 | 32 | 32 | 64 | 8 | 6.1 |
| C[C@@H]1O[C@@H](O[C@@H]2c3ccc(c(Cl)c3)Oc3cc4cc(c3O[C@@H]3O[C@H](CO)[C@@H](O)[C@H](O)[C@H]3O[C@H]3C[C@](C)(NCCCCCCc5ccccc5)[C@@H](O)[C@H](C)O3)Oc3ccc(cc3Cl)[C@@H](O)[C@@H](NCCCCCCc3ccccc3)C(=O)N[C@@H](CC(N)=O)C(=O)N[C@H]4C(=O)N[C@H]3C(=O)N[C@@H]2C(=O)N[C@H](C(=O)O)c2cc(O)cc(O)c2-c2cc3ccc2O)C[C@](C)(N)[C@H]1O [Example 15, N^1,N^DISACC -BIS(6-PHENYL-n-HEXYL) -DESLEUCYL-A82846B] | 2 | 2 | 0.125 | 2 | 8 | 0.5 | 2 | 4 | 1 | 6 |
| C[C@@H]1O[C@@H](O[C@@H]2c3ccc(c(Cl)c3)Oc3cc4cc(c3O[C@@H]3O[C@H](CO)[C@@H](O)[C@H](O)[C@H]3O[C@H]3C[C@](C)(NCc5ccc(-c6ccccc6)cc5)[C@@H](O)[C@H](C)O3)Oc3ccc(cc3Cl)[C@@H](O)[C@@H](NCc3ccc(-c5ccccc5)cc3)C(=O)N[C@@H](CC(N)=O)C(=O)N[C@H]4C(=O)N[C@H]3C(=O)N[C@@H]2C(=O)N[C@H](C(=O)O)c2cc(O)cc(O)c2-c2cc3ccc2O)C[C@](C)(N)[C@H]1O [Example 4, N^1,N^DISACC -BIS(p-PHENYLBENZYL)-DESLEUCYL-A82846B] | 2 | 2 | ≤ .06 | 2 | 53 | ≤ .06 | 2 | 4 | 2 | 21 |
| C[C@@H]1O[C@@H](O[C@H]2[C@H](Oc3c4cc5cc3Oc3ccc(cc3Cl)[C@@H](O[C@H]3C[C@](C)(N)[C@@H](O)[C@H](C)O3)[C@@H]3NC(=O)[C@H](NC(=O)[C@@H]5NC(=O)[C@H](CC(N)=O)NC(=O)[C@H](NCCCCCCCCc5ccccc5)[C@H](O)c5ccc(c(Cl)c5)O4)c4ccc(O)c(c4)-c4c(O)cc(O)cc4[C@@H](C(=O)O)NC3=O)O[C@H](CO)[C@@H](O)[C@@H]2O)C[C@](C)(N)[C@H]1O [Example 19, N^1 -(8-PHENYL-n-OCTYL)DESLEUCYL-A82846B] | 4 | 1 | 0.5 | 1 | 45 | 0.5 | 2 | 2 | 2 | 254 |
| C[C@@H]1O[C@@H](O[C@@H]2c3ccc(c(Cl)c3)Oc3cc4cc(c3O[C@@H]3O[C@H](CO)[C@@H](O)[C@H](O)[C@H]3O[C@H]3C[C@](C)(NCc5ccc(-c6ccccc6)cc5)[C@@H](O)[C@H](C)O3)Oc3ccc(cc3Cl)[C@@H](O)[C@@H](NCc3ccccc3)C(=O)N[C@@H](CC(N)=O)C(=O)N[C@H]4C(=O)N[C@H]3C(=O)N[C@@H]2C(=O)N[C@H](C(=O)O)c2cc(O)cc(O)c2-c2cc3ccc2O)C[C@](C)(N)[C@H]1O [Example 5, N^1 -BENZYL-N^DISACC -(p-PHENYLBENZYL)-DESLEUCYL-A82846B] | 2 | 2 | 0.125 | 2 | 23 | 0.5 | 2 | 2 | 2 | 9.2 |
| CSc1ccc(CN[C@H]2C(=O)N[C@@H](CC(N)=O)C(=O)N[C@H]3C(=O)N[C@H]4C(=O)N[C@H](C(=O)N[C@H](C(=O)O)c5cc(O)cc(O)c5-c5cc4ccc5O)[C@H](O[C@H]4C[C@](C)(N)[C@@H](O)[C@H](C)O4)c4ccc(c(Cl)c4)Oc4cc3cc(c4O[C@@H]3O[C@H](CO)[C@@H](O)[C@H](O)[C@H]3O[C@H]3C[C@](C)(NCc4ccc(SC)cc4)[C@@H](O)[C@H](C)O3)Oc3ccc(cc3Cl)[C@H]2O)cc1 [Example 25, N^1,N^DISACC -BIS(p-(METHYLTHIO)-BENZYL)DESLEUCYL-A82846B] | 8 | 4 | 4 | 4 | 6.7 | 1 | 8 | 8 | 4 | 2.6 |
| CSc1ccc(CN[C@H]2C(=O)N[C@@H](CC(N)=O)C(=O)N[C@H]3C(=O)N[C@H]4C(=O)N[C@H](C(=O)N[C@H](C(=O)O)c5cc(O)cc(O)c5-c5cc4ccc5O)[C@H](O[C@H]4C[C@](C)(N)[C@@H](O)[C@H](C)O4)c4ccc(c(Cl)c4)Oc4cc3cc(c4O[C@@H]3O[C@H](CO)[C@@H](O)[C@H](O)[C@H]3O[C@H]3C[C@](C)(N)[C@@H](O)[C@H](C)O3)Oc3ccc(cc3Cl)[C@H]2O)cc1 [Example 24, N^1 -(p-(METHYLTHIO)-BENZYL)DESLEUCYL-A82846B] | 32 | 16 | 8 | 32 | > 128 | 8 | 64 | 32 | 32 | > 128 |
